Results: patent US20220192984A1, “PHARMACEUTICAL COMPOSITIONS COMPRISING OTIC THERAPEUTIC AGENTS AND RELATED METHODS” (Frequency Therapeutics, Inc., priority 2018, published 2022)
pEC50, pIC50: −log10 of the molar value. Like-named read-outs stand apart in the source and are kept apart here.

Key:
LSD1 [1] = molecular target: T1, LSD1 (Homo sapiens, UniProt O60341); conditions: Table 18, LSD1; read-out: pKi or IC50 (converted); cited from earlier work
gamma secretase = conditions: cited from earlier work; for Lit cell conc: Table 23
[2] = Reconstitution time of lyophilized compositions (Tables E, 28, 35); format: physicochemical; conditions: for Reconstitution time (minutes) water + DMSO / Reconstitution time (minutes) with water: lyophilized 16.15% P407 with salt at 533.25 mM; for Reconstitution time (minutes) water + DMSO: reconstituted with Diluent ([…] DMSO in water); for Reconstitution time (minutes) with water: reconstituted with water; for reconstitution time of lyophilized poloxamer with added organic acid salt: poloxamer 16.15%, salt 533.25 mM
Experimental: Diluent 1, 0.85 mL+lyophilized cake. […] Gentle tapping on the exterior of the vessel to help the cake dissolve in the Diluent may be required while keeping it in fridge (or ice bath). To avoid degradation of the composition, minimize stirring and/or vortexing.
Diluent 1, 0.95 mL+Placebo cake: Using a syringe, add the Diluent to the Placebo cake, and rest in a fridge or ice bath (2-8° C.) for 60 minutes or until clear solution is formed. Gentle tapping on the exterior of the vessel to help the cake dissolve in the Diluent may be required while keeping it in fridge (or ice bath). To avoid degradation of the composition, minimize stirring and/or vortexing.
Powder P407 (i.e. non-lyophilized) can be obtained from BASF.
Reconstitution of lyophilized P407 (Placebo) and powder P407 was done using 850 μL Diluent (see above for example preparations of a Diluent) in a vial.
Therefore, to probe the effect of salts other than sodium valproate on reconstitution time, a poloxamer solution at 16.15% concentration either alone or including a salt (e.g. an inorganic salt or organic acid salt) at a concentration of 533.25 mM, was lyophilized. The lyophilized material was then reconstituted using Diluent for reconstitution (6.4% DMSO by wt. % in water) or with water.
Building on the results of Examples 14 to 16, further lyophilized compositions were manufactured and had their reconstitution times evaluated. […] The further lyophilized compositions were made in accordance with Example 10, and reconstituted in accordance with Example 12.

Lgr5+ cells = assay: Lgr5+ Assay (Lgr5+ cell assay in vitro); format: cell-based
[3] = Perilymph Conc. listed for agents (Tables 14-25)
[4] = cited from earlier work
EZH2 [5] = molecular target: T2, EZH2 (Homo sapiens, UniProt Q15910); conditions: Table 19; cited from earlier work
EZH2 [6] = molecular target: T2, EZH2; conditions: Table 19, EZH2; read-out: pKi or IC50 (converted); cited from earlier work
KDM = conditions: cited from earlier work
LSD1 [7] = molecular target: T1, LSD1; conditions: Table 18, cited from earlier work
[8] = Table 23, Aβ40, read-out: Lit cell conc IC50, Aβ40
[9] = Table 23, Aβ42, read-out: Lit cell conc IC50, Aβ42
[10] = Table 21, KDM 5, read-out: Select KDM 5

T2 sequence (Q15910 whole entry, species assumed): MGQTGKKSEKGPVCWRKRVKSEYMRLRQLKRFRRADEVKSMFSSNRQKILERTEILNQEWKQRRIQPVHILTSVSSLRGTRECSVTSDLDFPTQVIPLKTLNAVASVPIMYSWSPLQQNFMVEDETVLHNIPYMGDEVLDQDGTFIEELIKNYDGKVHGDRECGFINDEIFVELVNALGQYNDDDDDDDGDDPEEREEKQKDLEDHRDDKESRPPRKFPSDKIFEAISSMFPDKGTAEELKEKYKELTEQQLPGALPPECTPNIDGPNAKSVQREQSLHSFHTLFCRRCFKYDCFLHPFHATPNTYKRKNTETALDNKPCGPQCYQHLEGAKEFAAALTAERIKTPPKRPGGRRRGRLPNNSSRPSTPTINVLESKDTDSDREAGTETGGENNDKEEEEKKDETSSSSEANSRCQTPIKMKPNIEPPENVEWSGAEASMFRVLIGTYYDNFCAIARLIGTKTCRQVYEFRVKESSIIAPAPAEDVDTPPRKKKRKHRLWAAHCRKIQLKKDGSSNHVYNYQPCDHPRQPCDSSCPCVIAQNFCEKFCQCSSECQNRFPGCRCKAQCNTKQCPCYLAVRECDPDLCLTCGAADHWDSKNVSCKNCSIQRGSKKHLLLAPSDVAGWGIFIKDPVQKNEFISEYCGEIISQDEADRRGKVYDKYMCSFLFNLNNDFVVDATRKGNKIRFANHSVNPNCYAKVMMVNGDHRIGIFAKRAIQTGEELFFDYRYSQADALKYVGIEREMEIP
T2 sequence (O75530 whole entry partner, species assumed): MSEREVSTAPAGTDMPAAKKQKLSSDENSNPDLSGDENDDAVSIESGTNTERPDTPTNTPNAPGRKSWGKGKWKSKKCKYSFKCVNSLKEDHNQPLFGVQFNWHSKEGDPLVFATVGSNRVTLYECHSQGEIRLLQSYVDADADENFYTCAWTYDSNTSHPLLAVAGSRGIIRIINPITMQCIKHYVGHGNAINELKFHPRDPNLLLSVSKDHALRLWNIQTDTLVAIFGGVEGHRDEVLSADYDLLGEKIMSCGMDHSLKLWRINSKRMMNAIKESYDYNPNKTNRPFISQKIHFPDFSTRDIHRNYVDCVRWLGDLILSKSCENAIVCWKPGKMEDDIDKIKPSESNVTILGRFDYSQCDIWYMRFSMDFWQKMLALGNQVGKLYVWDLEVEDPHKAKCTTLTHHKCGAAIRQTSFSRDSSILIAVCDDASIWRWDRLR
T2 sequence (Q15022 whole entry partner, species assumed): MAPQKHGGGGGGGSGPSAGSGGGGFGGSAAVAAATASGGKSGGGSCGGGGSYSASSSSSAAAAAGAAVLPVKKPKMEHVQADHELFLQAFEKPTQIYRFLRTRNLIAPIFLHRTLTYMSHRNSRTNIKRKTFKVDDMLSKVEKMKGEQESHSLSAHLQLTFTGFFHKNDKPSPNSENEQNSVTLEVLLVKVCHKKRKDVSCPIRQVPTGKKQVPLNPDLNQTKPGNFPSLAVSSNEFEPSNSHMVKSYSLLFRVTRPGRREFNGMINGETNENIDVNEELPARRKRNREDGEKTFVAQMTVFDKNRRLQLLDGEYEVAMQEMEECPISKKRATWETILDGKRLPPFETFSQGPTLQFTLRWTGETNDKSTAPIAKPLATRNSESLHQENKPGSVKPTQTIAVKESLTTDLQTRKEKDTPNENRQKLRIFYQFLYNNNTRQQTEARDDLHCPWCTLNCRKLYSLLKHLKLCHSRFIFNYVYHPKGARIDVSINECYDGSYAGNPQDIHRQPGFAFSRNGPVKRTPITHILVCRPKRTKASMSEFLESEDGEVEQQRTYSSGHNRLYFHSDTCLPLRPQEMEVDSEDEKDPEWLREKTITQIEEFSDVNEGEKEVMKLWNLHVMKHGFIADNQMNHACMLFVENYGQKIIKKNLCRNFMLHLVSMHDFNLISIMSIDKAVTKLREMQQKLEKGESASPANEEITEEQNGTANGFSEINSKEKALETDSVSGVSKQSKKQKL

Molecule: CN(C)CCCNc1nc(NC2CCN(Cc3ccccc3)CC2)c2ccccc2n1 [MC2694]
- IC50 (LSD1 [1]): 1000 nM

Molecule: COc1ccc2c(c1)c(CC(=O)O)c(C)n2C(=O)c1ccc(Cl)cc1 [Indomethacin]
- Lit cell conc (gamma secretase): 25 to 50 µM

Molecule: COc1nc(-c2cc(C)c(N[C@@H](C)c3ccc(F)cc3)nn2)ccc1-n1cnc(C)c1 [BPN-15606]
- pIC50 (gamma secretase; [8]): 7.77
- pIC50 (gamma secretase; [9]): 8.15

Molecule: O=S(=O)(N[C@H](CO)C(C(F)(F)F)C(F)(F)F)c1ccc(Cl)s1 [Begacestat/GSI-953]
- pEC50 (gamma secretase; Table 23, Aβ40, in cells, read-out: Lit cell conc EC50, lowers Aβ40): 7.83
- pEC50 (gamma secretase; Table 23, Aβ42, in cells, read-out: Lit cell conc EC50, lowers Aβ42): 7.91

Molecule: Magnesium divalproate [reference compound]
- Reconstitution time (minutes) water + DMSO [2]: 14 min
- Reconstitution time (minutes) with water [2]: 14 min
- reconstitution time of lyophilized poloxamer with added organic acid salt [2]: 420 min

Molecule: [Cl-].[Na+] [Sodium Chloride]
- Reconstitution time (minutes) water + DMSO [2]: 150 min
- Reconstitution time (minutes) with water [2]: 150 min

Molecule: O=C(N/N=C/c1c(O)ccc2ccccc12)c1ccncc1 [AS 8351]
- Lgr5+ Assay (Lgr5+ cells; Table 21): 1 to 3 µM
- Perilymph Conc ([3]; Table 21): 1 to 3 µM
- Human In Vivo Conc ([4]; Table 21): 1 to 3 µM

Molecule: C#CCC(CCCCCC)C(=O)[O-].[Na+] (stereo not drawn) [Sodium 2-(prop-2-yn-l-yl) Octanoate]
- Reconstitution time (minutes) water + DMSO [2]: 4 min
- Reconstitution time (minutes) with water [2]: 4 min

Molecule: N[C@H]1CC[C@H](N[C@@H]2C[C@H]2c2ccccc2)CC1 [ORY-1001]
- Lgr5+ Assay (Lgr5+ cells; Table 18, result in words): Activity

Molecule: C[C@H](NC(=O)CCC(F)(F)F)C(=O)N[C@@H]1C(=O)N(CCO)c2ncccc2-c2ccccc21 [Crenigacestat LY 3039478]
- pIC50 (gamma secretase; Table 23, in most of the tumor cell lines, read-out: Lit cell conc IC50): ~9.00

Molecule: CCOc1ccc2nc3cc(N)ccc3c(N)c2c1 [Ethacridine, reference compound]
- Lgr5+ Assay (Lgr5+ cells; Table 22, result in words): Activity

Molecule: Nc1nccc2c1ncn2C1C=C(CO)C(O)C1O (stereo not shown) [DZNep]
- Lgr5+ Assay (Lgr5+ cells; Table 19, result in words): Activity
- Lit Cell Poten (EZH2 [5]): 1000 nM

Molecule: COc1oc(=O)c2cc(N)ccc2c1Cl [JLK 6]
- Lit cell conc (gamma secretase): 30 µM

Molecule: CC1=C(C(=O)OC2CCCCC2)C(c2ccc([N+](=O)[O-])cc2)C2=C(CC(C)(C)CC2=O)N1 (stereo not shown) [FLI-06]
- IC50 (LSD1 [1]): 92 nM

Molecule: C=CCNc1nc(N)c(C(=O)c2ccc(Cl)s2)s1 [IBS008738, reference compound]
- Lgr5+ Assay (Lgr5+ cells; Table 22): 1.1 to 30 µM
- Perilymph Conc ([3]; Table 22, listed concentration, no test described): 1.1 to 30 µM

Molecule: COc1c(O)cc2oc3cc(O)c(CC=C(C)C)c(O)c3c(=O)c2c1CC=C(C)C [Alpha-mangostin]
- IC50 (LSD1 [1]): 2800 nM

Molecule: Cc1cc(C)c(CNC(=O)c2cc(Cl)c3c(c2C)O[C@@](C)([C@H]2CC[C@H](N(C)C)CC2)O3)c(=O)[nH]1 [Valemetostat]
- Perilymph Conc ([3]; Table 19): 0.01 to 1 µM

Molecule: CS(=O)(=O)c1ccc(-c2cnc(NCc3ccco3)n3cnnc23)cc1 [EED226]
- Lgr5+ Assay (Lgr5+ cells; Table 19, result in words): Activity

Molecule: Cc1coc2c1C(=O)C(=O)c1c-2ccc2c1CC[C@@H](O)[C@]2(C)O [Tanshindiol C]
- IC50 (EZH2 [6]): 550 nM

Molecule: NO [Hydroxylamine]
- IC50 (LSD1 [1]): 121 nM

Molecule: CCc1c(N(CC)C2CCOCC2)cc2oc(C3CCN(C(C)C)CC3)cc2c1C(=O)NCc1c(C)cc(C)[nH]c1=O [EBI-2511]
- IC50 (EZH2 [6]): 4 nM

Molecule: c1ccc([C@@H]2C[C@H]2NC2CCNCC2)cc1 [GSK-LSD1]
- Lgr5+ Assay (Lgr5+ cells; Table 18, lower end of concentration range): ≥ 4 nM-
- Perilymph Conc ([3]; Table 18, lower end of range): ≥ 4 nM-
- Perilymph Conc ([3]; Table 18, range or its upper end): ≤ 50 µM
- Human Plasma Conc ([4]; Table 18): 1 to 100 nM

Molecule: [Cl-].[K+] [Potassium Chloride]
- Reconstitution time (minutes) water + DMSO [2]: 168 min
- Reconstitution time (minutes) with water [2]: 180 min

Molecule: CCOC(=O)CCNc1cc(N2CCc3ccccc3CC2)nc(-c2ccccn2)n1 [GSK-J4]
- pIC50 (KDM; [10]): 6.77
- pIC50 (KDM; Table 21, KDM 6, read-out: Select KDM 6): 7.55

Molecule: O=C(O)CC[C@H]1CC[C@@](c2cc(F)ccc2F)(S(=O)(=O)c2ccc(Cl)cc2)CC1 [MK-0572]
- pIC50 (gamma secretase; Table 23, SH-SY5Y cells, read-out: Lit cell conc IC50): 8.30

Molecule: CCc1c(-c2ccccc2C)nc2c(C#N)c[nH]n2c1=O [CPI-4203]
- pIC50 (KDM; [10]): 5.96

Molecule: Tanshindiol B
- IC50 (EZH2 [6]): 520 nM

Molecule: CC(C(=O)O)c1ccc2c(c1)[nH]c1ccc(Cl)cc12 (stereo not shown) [Carprofen]
- Lit cell conc (gamma secretase): 76 µM

Molecule: COc1cc(C)[nH]c(=O)c1CNC(=O)c1c(C)n([C@H](C)C2CCN(CC(F)(F)F)CC2)c2ccccc12 [CPI-1205]
- Perilymph Conc ([3]; Table 19): 0.01 to 1 µM
- Human In Vivo Conc ([4]; Table 19): 0.025 to 0.25 µM

Molecule: CC(C)[C@H](O)C(=O)N[C@@H](C)C(=O)N[C@@H]1C(=O)N(C)CCc2ccccc21 [Semagacestat LY 450139]
- pIC50 (gamma secretase; Table 23, Aβ38, read-out: Lit cell conc IC50, Aβ38): 7.92
- pIC50 (gamma secretase; [8]): 7.92
- pIC50 (gamma secretase; [9]): 7.96

Molecule: O=C(O)C1(c2ccc(-c3ccc(Cl)c(Cl)c3)c(F)c2)CC1 [CHF5074]
- pIC50 (gamma secretase; [8]): 4.74

Molecule: C=CC(=O)Nc1cc(Nc2nccc(-c3cn(C)c4ccccc34)n2)c(OC)cc1N(C)CCN(C)C [Osimertinib]
- Literat. Cell (LSD1 [7]): 43 nM

Molecule: C/C(=N\NC(=O)c1cccc(S(=O)(=O)N2CCOCC2)c1)c1cc(Cl)ccc1O [SP-2509]
- Lgr5+ Assay (Lgr5+ cells; Table 18, result in words): Activity
- IC50 (LSD1 [1]): 13 nM
- Literat. Cell (LSD1 [7]): 350 to 650 nM

Molecule: NC(=O)[C@@H](CCC(F)(F)F)N(Cc1ccc(-c2ncon2)cc1F)S(=O)(=O)c1ccc(Cl)cc1 [Avagacestat/BMS-708163]
- pIC50 (gamma secretase; [8]): 9.52
- pIC50 (gamma secretase; [9]): 9.57

Molecule: C[C@H](c1ccc(F)cc1CCCC(=O)O)N(c1cc(F)ccc1F)S(=O)(=O)c1ccc(Cl)cc1 [BMS 299897]
- pIC50 (gamma secretase; [8]): 8.13
- pIC50 (gamma secretase; [9]): 8.10

Molecule: CCCc1cc(C)[nH]c(=O)c1CNC(=O)c1cc(-c2ccnc(N3CCN(C)CC3)c2)cc2c1cnn2C(C)C [GSK343]
- Lit Cell Poten (EZH2 [5]): 174 nM

Molecule: COc1ccc(CCN2CCC(Nc3nc4ccccc4n3Cc3ccc(F)cc3)CC2)cc1 [Astemizole]
- IC50 (EZH2 [6]): 94000 nM

Molecule: Clc1ccc(N/N=C(\c2ccccc2)c2ccccn2)nc1 [JIB-04]
- pIC50 (KDM; [10]): 6.66

Molecule: C[C@H](NC(=O)Cc1cc(F)cc(F)c1)C(=O)N[C@H](C(=O)OC(C)(C)C)c1ccccc1 [DAPT]
- pIC50 (gamma secretase; Table 23, neuronal culture, Aβ42, read-out: Lit cell conc IC50, Aβ42): 6.70
- pIC50 (gamma secretase; Table 23, neuronal culture, total Aβ, read-out: Lit cell conc IC50, total Aβ): 6.94

Molecule: CCN(c1cc(C#CCN2CCOCC2)cc(C(=O)NCc2c(C)cc(C)[nH]c2=O)c1C)[C@H]1CC[C@H](N(C)CCOC)CC1 [EPZ-011989]
- Lit Cell Poten (EZH2 [5]): 94 nM

Molecule: C#CCC(CCCCCC)C(=O)[O-].[Na+] (stereo not shown) [Sodium 2-(prop-2-yn-1-yl) octanoate, reference compound]
- reconstitution time of lyophilized poloxamer with added organic acid salt [2]: 420 min

Molecule: [Ca+2].[Cl-].[Cl-] [Calcium Chloride]
- Reconstitution time (minutes) water + DMSO [2]: plugs remain at end of 180 minutes
- Reconstitution time (minutes) with water [2]: plugs remain at end of 180 minutes

Molecule: O=P(O)(O)O [Potassium Phosphate]
- Reconstitution time (minutes) water + DMSO [2]: undissolved at end of 180 minutes
- Reconstitution time (minutes) with water [2]: undissolved at end of 180 minutes

Molecule: CC(C)C[C@H](C(=O)O)c1cc(-c2ccc(C(F)(F)F)cc2)cc(-c2ccc(C(F)(F)F)cc2)c1 [JNJ-40418677]
- Lit cell conc (gamma secretase): 0.18 to 0.2 µM

Molecule: COC(=O)c1cc(CN2CCN(C(=N)N)CC2)cc(C(=O)N2CCN(C(=O)c3ccc(C(=N)N)cc3)CC2)c1 [CBB-1007]
- Lgr5+ Assay (Lgr5+ cells; Table 18, result in words): Activity
- IC50 (LSD1 [1]): 2100 nM
- pIC50 (LSD1 [7]; read-out: Literat. Cell IC50): > 5.30

Molecule: [Cl-].[Cl-].[Mg+2] [Magnesium Chloride]
- Reconstitution time (minutes) water + DMSO [2]: 180 min
- Reconstitution time (minutes) with water [2]: 180 min

Molecule: O=S(=O)(NC1CCC(c2cc(F)ccc2F)(S(=O)(=O)c2ccc(Cl)cc2)CC1)C(F)(F)F (stereo not shown) [MRK 560]
- Lit cell conc (gamma secretase): 0.00065 µM

Molecule: O=C([O-])O.[Na+] [Sodium Bicarbonate]
- Reconstitution time (minutes) water + DMSO [2]: undissolved at end of 180 minutes
- Reconstitution time (minutes) with water [2]: undissolved at end of 180 minutes

Molecule: CSc1ccc(/C=C2/C(C)=C(CC(=O)O)c3cc(F)ccc32)cc1 [Suldinac sulfide]
- Lit cell conc (gamma secretase): 34 µM

Molecule: CCc1cc(Nc2nc(-c3ccc(-n4cnc(C)c4)c(F)c3)cs2)c(C)cc1C [NGP 555]
- Lit cell conc (gamma secretase): 0.01 µM
